Data on two molecules can be found in US10774084B2, “Adenine derivatives and their use as UV-photoprotective agents” (UNIVERZITA PALACKEHO V OLOMOUCI, priority 2015, dated 2020).

The test system of one data set is GSH depletion. Put plainly: UVA-induced GSH depletion in NHDF (DTNB). The class given is cell-based, human. The source says:
(§1) Normal human dermal fibroblasts (NHDF) were used as an in vitro model. Cells were isolated from tissue specimens obtained from healthy patients undergoing plastic surgery at the Department of Plastic and Aesthetic Surgery (University Hospital Olomouc). The use of skin tissue was in accordance with the Ethics Committee of the University Hospital and Faculty of Medicine and Dentistry, Palacky University, Olomouc and all patients signed written informed consent. Fibroblasts were used between the 2nd and 4th passage. […]
(§2) Test compounds included 6-(tetrahydrofuran-2-ylmethylamino)-9-(tetrahydrofuran-2-yl)purine and positive control (rosmarinic acid). […] Intensity of UVA radiation was evaluated before each irradiation by UVA-meter. […] After 1 hour (37° C., 5% CO2) cell damage was evaluated by analysis of reactive oxygen species (ROS) production. In parallel, intracellular levels of glutathion (GSH) were measured 4 hours (37° C., 5% CO2) after UVA application.
GSH levels in NHDF were evaluated by reaction with 5,5′-Dithiobis(2-nitrobenzoic acid) (DTNB). […] Absorbance was measured at 412 nm. Protein content was analyzed spectrophotometrically by Lowry's method at 680 nm.
Activity of test compounds (not irradiated) in analyzed parameters were evaluated by comparison of experimental data according to the following equation: […]

In another data set the test system is ROS production. Put plainly: UVA-induced ROS production in NHDF (H2DCFDA). The class given is cell-based, human.
From the text: as §1, §2
ROS production was evaluated by 2,7-Dichlorodihydrofluorescein diacetate (H2DCFDA). […] Samples were applied on 96-well plate and fluorescence was measured (488/525 nm) (INFINITE M200, Tecan, Switzerland) after centrifugation (10 000 rpm, 4° C., 10 min). Protein content was analyzed spectrophotometrically by bicinchoninic acid at 562 nm (INFINITE M200, Tecan, Switzerland). […]

Data set [1] has as its system Normal Human Epidermal Keratinocytes (NHEK). The data set is described as follows: In vitro phototoxicity test (neutral red) on NHEK. The class given is cell-based. The text has this:
Normal Human Epidermal Keratinocytes (NHEK) were used as an in vitro model. Cells were isolated from tissue specimens obtained from healthy patients undergoing plastic surgery at the Department of Plastic and Aesthetic Surgery (University Hospital Olomouc). The use of skin tissue was in accordance with the Ethics Committee of the University Hospital and Faculty of Medicine and Dentistry, Palacky University, Olomouc and all patients signed written informed consent. NHEK were used between the 3rd and 4th passage. […] Intensity of UVA radiation was evaluated before each irradiation by UVA-meter. […]
After UVA exposure PBS with glucose was discarded and serum free medium was applied. After 24 hours (37° C., 5% CO2) cell damage was evaluated by neutral red (NR) incorporation into viable cells. […] After 5 minutes of intensive shaking absorbance was measured at 540 nm. […] Phototoxic effect was evaluated as % of viability of control cells that was calculated from experimental data (absorbance) according to the following equation: […]
AS . . . absorbance of sample (cells pre-incubated with test compound in serum free medium and irradiated)
AC . . . absorbance of control (cells pre-incubated with DMSO in serum free medium and irradiated)
AB . . . absorbance of background (extraction solution)

Setting [2] is: non-irradiated NHDF, 2.5-20 μmol/l.

SMILES strings stand for the structures.

Turning to `c1nc(NCC2CCCO2)c2ncn(C3CCCO3)c2n1` (stereo not drawn) [Compound 1, 6-(tetrahydrofuran-2-ylmethylamino)-9-(tetrahydrofuran-2-yl)purine], the “protection against GSH depletion in comparison with rosmarinic acid (in words)” value in the data set on GSH depletion (UVA, NHDF) is given as “less effective”. In addition, the “effect on GSH level in non-irradiated cells (in words)” value in the data set with GSH depletion (setting [2]) was “did not showed negative effect”. For the same molecule, the “protection against production of ROS in comparison with rosmarinic acid (in words)” value in the data set with ROS production (UVA, NHDF) is listed as “more effective”. Also, the “effect on ROS production in non-irradiated cells (in words)” value in the data set with ROS production (setting [2]) was “did not showed negative effect”.
For the molecule `CN(C)CCCN1c2ccccc2Sc2ccc(Cl)cc21` [chlorpromazine, reference compound], the “viability of NHEK cells” value is “below 80 % of control” in data set [1] (UVA+, 0.6 μmol/l) and “below 50%” in data set [1] (UVA−, 12.5 μmol/l).
